Results reported in patent publication US9051310B2, “Nicotinamide derivative or salt thereof” (FUJIFILM Corporation, priority 2011, dated 2015).

These molecules were tested against T1, glutathione S-transferase (GST)-linked full-length human Syk protein (Homo sapiens, UniProt P43405) (assay: Syk enzyme assay). Details: 0.83 nM Syk, time-resolved fluorescence; read-out: IC50 of Syk-inhibitory activity.
T1 construct: glutathione S-transferase (GST)-linked full-length human Syk protein; purchased Carna Biosciences; host or cells: Baculovirus expression system
Type: biochemical
How it was run: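 Phosphotyrosine on a biotin-peptide substrate (0.5 μM) was read by time-resolved fluorescence at 615 and 665 nm with Eu-anti-pTyr antibody and APC-streptavidin after 1 h EDTA stop.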
For `COCCn1nc(N(C)C)c2cc(Nc3nc(N[C@@H]4CCOC[C@@H]4N)c(F)cc3C(N)=O)ccc21` [Example 2-501, 6-(((3R,4R)-3-aminotetrahydro-2H-pyran-4-yl)amino)-2-((3-(dimethylamino)-1-(2-methoxyethyl)-1H-indazol-5-yl)amino)-5-fluoronicotinamide], the IC50 was 10 to 50 nM. `CC[C@@H](Nc1nc(Nc2ccc3c(c2)c(N(C)C)nn3CCOC)c(C(N)=O)cc1F)[C@H](C)N` [Example 2-502, 6-(((2S,3R)-2-aminopentan-3-yl)amino)-2-((3-(dimethylamino)-1-(2-methoxyethyl)-1H-indazol-5-yl)amino)-5-fluoronicotinamide] gave an IC50 of 10 to 50 nM. For `CCC[C@@H](Nc1nc(Nc2ccc3c(c2)c(N(C)C)nn3CCOC)c(C(N)=O)cc1F)[C@H](C)N` [Example 2-503, 6-(((2S,3R)-2-aminohexan-3-yl)amino)-2-((3-(dimethylamino)-1-(2-methoxyethyl)-1H-indazol-5-yl)amino)-5-fluoronicotinamide], the IC50 was 10 to 50 nM. `COCCn1nc(N(C)C)c2cc(Nc3nc(N[C@H](C4CC4)[C@H](C)N)c(F)cc3C(N)=O)ccc21` [Example 2-504] gave an IC50 of 10 to 50 nM. `COCCn1nc(N(C)C)c2cc(Nc3nc(N[C@H](CC(C)C)[C@H](C)N)c(F)cc3C(N)=O)ccc21` [Example 2-505, 6-(((2S,3R)-2-amino-5-methylhexan-3-yl)amino)-2-((3-(dimethylamino)-1-(2-methoxyethyl)-1H-indazol-5-yl)amino)-5-fluoronicotinamide] was tested, and the IC50 was 10 to 50 nM. In the case of `COCCn1nc(N(C)C)c2cc(Nc3nc(N[C@H](C4CCC4)[C@H](C)N)c(F)cc3C(N)=O)ccc21` [Example 2-506, 6-(((1R,2S)-2-amino-1-cyclobutylpropyl)amino)-2-((3-(dimethylamino)-1-(2-methoxyethyl)-1H-indazol-5-yl)amino)-5-fluoronicotinamide], the IC50 is reported as 10 to 50 nM. Work on `CC[C@H](N)[C@@H](C)Nc1nc(Nc2ccc3c(c2)c(N(C)C)nn3CCOC)c(C(N)=O)cc1F` [Example 2-507, 6-(((2R,3S)-3-aminopentan-2-yl)amino)-2-((3-(dimethylamino)-1-(2-methoxyethyl)-1H-indazol-5-yl)amino)-5-fluoronicotinamide] yielded an IC50 of 50 to 100 nM. `CCn1ncc2c(Nc3nc(N[C@H](c4cccs4)[C@H](C)N)c(F)cc3C(N)=O)cccc21` [Example 2-509, 6-(((1S,2S)-2-amino-1-(thiophen-2-yl)propyl)amino)-2-((1-ethyl-1H-indazol-4-yl)amino)-5-fluoronicotinamide] was tested, and the IC50 was less than 10 nM. `C[C@H](N)[C@H](Nc1nc(Nc2ccc3c(c2)c(N(C)C)nn3C)c(C(N)=O)cc1F)c1cccs1` [Example 2-510, 6-(((1S,2S)-2-amino-1-(thiophen-2-yl)propyl)amino)-2-((3-(dimethylamino)-1-methyl-1H-indazol-5-yl)amino)-5-fluoronicotinamide] showed an IC50 of less than 10 nM. `C[C@H](N)[C@H](Nc1nc(Nc2cnc(N3CCOCC3)c(F)c2)c(C(N)=O)cc1F)c1ccc(Cl)s1` [Example 2-511, 6-(((1S,2S)-2-amino-1-(5-chlorothiophen-2-yl)propyl)amino)-5-fluoro-2-((5-fluoro-6-morpholinopyridin-3-yl)amino)nicotinamide] showed an IC50 of 10 to 50 nM. Work on `CCn1ncc2c(Nc3nc(N[C@H](c4ccc(Cl)s4)[C@H](C)N)c(F)cc3C(N)=O)cccc21` [Example 2-512, 6-(((1S,2S)-2-amino-1-(5-chlorothiophen-2-yl)propyl)amino)-2-((1-ethyl-1H-indazol-4-yl)amino)-5-fluoronicotinamide] yielded an IC50 of less than 10 nM. In the case of `C[C@H](N)[C@H](Nc1nc(Nc2cnc(N3CCOCC3)c(F)c2)c(C(N)=O)cc1F)c1ccccc1F` [Example 2-513, 6-(((1R,2S)-2-amino-1-(2-fluorophenyl)propyl)amino)-5-fluoro-2-((5-fluoro-6-morpholinopyridin-3-yl)amino)nicotinamide], the IC50 is reported as 10 to 50 nM. For `CCn1ncc2c(Nc3nc(N[C@H](c4ccccc4F)[C@H](C)N)c(F)cc3C(N)=O)cccc21` [Example 2-514, 6-(((1R,2S)-2-amino-1-(2-fluorophenyl)propyl)amino)-2-((1-ethyhl-1H-indazol-4-yl)amino)-5-fluoronicotinamide], the IC50 was less than 10 nM. With `COc1ncc(Nc2nc(N[C@@H]3CCCC[C@@H]3N)c(F)cc2C(N)=O)cc1C(C)=O` [Example 2-515, 2-((5-acetyl-6-methoxypyridin-3-yl)amino)-6-(((1R,2S)-2-aminocyclohexyl)amino)-5-fluoronicotinamide] the IC50 was 10 to 50 nM. `C[C@H](N)[C@H](Nc1nc(Nc2cncc(-n3cc(Cl)cn3)c2)c(C(N)=O)cc1F)C1CC1` [Example 2-520, 6-(((1R,2S)-2-amino-1-cyclopropylpropyl)amino)-2-((5-(4-chloro-1H-pyrazol-1-yl)pyridin-3-yl)amino)-5-fluoronicotinamide] showed an IC50 of less than 10 nM. With `Cc1cnn(-c2cncc(Nc3nc(N[C@H](C4CCC4)[C@H](C)N)c(F)cc3C(N)=O)c2)c1` [Example 2-523, 6-(((1R,2S)-2-amino-1-cyclobutylpropyl)amino)-5-fluoro-2-((5-(4-methyl-1H-pyrazol-1-yl)pyridin-3-yl)amino)nicotinamide] the IC50 was less than 10 nM. Molecule `Cc1cnn(-c2cncc(Nc3nc(N[C@@H](CN)CC(C)C)c(F)cc3C(N)=O)c2)c1` [Example 2-524, (R)-6-((1-amino-4-methylpentan-2-yl)amino)-5-fluoro-2-((5-(4-methyl-1H-pyrazol-1-yl)pyridin-3-yl)amino)nicotinamide] has an IC50 of less than 10 nM. In the case of `Cc1cnn(-c2cncc(Nc3nc(N[C@H](CC(C)C)[C@H](C)N)c(F)cc3C(N)=O)c2)c1` [Example 2-525, 6-(((2S,3R)-2-amino-5-methylhexan-3-yl)amino)-5-fluoro-2-((5-(4-methyl-1H-pyrazol-1-yl)pyridin-3-yl)amino)nicotinamide], the IC50 is reported as less than 10 nM. `Cc1cnn(-c2cncc(Nc3nc(N[C@@H]4CCOC[C@@H]4N)c(F)cc3C(N)=O)c2)c1` [Example 2-526, 6-(((3R,4R)-3-aminotetrahydro-2H-pyran-4-yl)amino)-5-fluoro-2-((5-(4-methyl-1H-pyrazol-1-yl)pyridin-3-yl)amino)nicotinamide] gave an IC50 of less than 10 nM. For `Cc1cnn(-c2cncc(Nc3nc(N[C@H](C4CC4)[C@H](C)N)c(F)cc3C(N)=O)c2)n1` [Example 2-532, 6-(((1R,2S)-2-amino-1-cyclopropylpropyl)amino)-5-fluoro-2-((5-(4-methyl-2H-1,2,3-triazol-2-yl)pyridin-3-yl)amino)nicotinamide], the IC50 was less than 10 nM. In the case of `Cc1nn(-c2cncc(Nc3nc(N[C@H](C4CC4)[C@H](C)N)c(F)cc3C(N)=O)c2)nc1C` [Example 2-534, 6-(((1R,2S)-2-amino-1-cyclopropylpropyl)amino)-2-((5-(4,5-dimethyl-2H-1,2,3-triazol-2-yl)pyridin-3-yl)amino)-5-fluoronicotinamide], the IC50 is reported as 50 to 100 nM. With `COCCNc1nn(CCOC)c2ccc(Nc3nc(N[C@@H]4CCCC[C@@H]4N)c(F)cc3C(N)=O)cc12` [Example 2-535, 6-(((1R,2S)-2-aminocyclohexyl)amino)-5-fluoro-2-((1-(2-methoxyethyl)-3-((2-methoxyethyl)amino)-1H-indazol-5-yl)amino)nicotinamide] the IC50 was 10 to 50 nM. In the case of `CC[C@@H](Nc1nc(Nc2ccc3c(c2)c(NCCOC)nn3CCOC)c(C(N)=O)cc1F)[C@H](C)N` [Example 2-536, 6-(((2S,3R)-2-aminopentan-3-yl)amino)-5-fluoro-2-((1-(2-methoxyethyl)-3-((2-methoxyethyl)amino)-1H-indazol-5-yl)amino)nicotinamide], the IC50 is reported as 10 to 50 nM. Molecule `COCCNc1nn(CCOC)c2ccc(Nc3nc(N[C@H](C4CC4)[C@H](C)N)c(F)cc3C(N)=O)cc12` [Example 2-537, 6-(((1R,2S)-2-amino-1-cyclopropylpropyl)amino)-5-fluoro-2-((1-(2-methoxyethyl)-3-((2-methoxyethyl)amino)-1H-indazol-5-yl)amino)nicotinamide] has an IC50 of 10 to 50 nM. Molecule `COCCn1nc(OC)c2cc(Nc3nc(N[C@H](C4CCC4)[C@H](C)N)c(F)cc3C(N)=O)ccc21` [Example 2-540] has an IC50 of less than 10 nM. With `CC(C)C[C@H](CN)Nc1nc(Nc2ccc3c(c2)c(OC(F)F)nn3C)c(C(N)=O)cc1F` [Example 2-541, (R)-6-((1-amino-4-methylpentan-2-yl)amino)-2-((3-(difluoromethoxy)-1-methyl-1H-indazol-5-yl)amino)-5-fluoronicotinamide] the IC50 was less than 10 nM. `COCCn1nc(OC(F)F)c2cc(Nc3nc(N[C@@H](CN)CC(C)C)c(F)cc3C(N)=O)ccc21` [Example 2-542, (R)-6-((1-amino-4-methylpentan-2-yl)amino)-2-((3-(difluoromethoxy)-1-(2-methoxyethyl)-1H-indazol-5-yl)amino)-5-fluoronicotinamide] showed an IC50 of less than 10 nM. `COCCn1nc(OC(F)F)c2cc(Nc3nc(N[C@H](C4CCC4)[C@H](C)N)c(F)cc3C(N)=O)ccc21` [Example 2-543, 6-(((1R,2S)-2-amino-1-cyclobutylpropyl)amino)-2-((3-(difluoromethoxy)-1-(2-methoxyethyl)-1H-indazol-5-yl)amino)-5-fluoronicotinamide] showed an IC50 of less than 10 nM. With `CC[C@H](N)[C@@H](C)Nc1nc(Nc2ccc3c(c2)c(OC(F)F)nn3CCOC)c(C(N)=O)cc1F` [Example 2-544, 6-(((2R,3S)-3-aminopentan-2-yl)amino)-2-((3-(difluoromethoxy)-1-(2-methoxyethyl)-1H-indazol-5-yl)amino)-5-fluoronicotinamide] the IC50 was 10 to 50 nM. Work on `CC[C@H](N)[C@H](Nc1nc(Nc2ccc3c(c2)c(C)nn3C)c(C(N)=O)cc1F)C1CC1` [Example 2-545, 6-(((1R,2S)-2-amino-1-cyclopropylbutyl)amino)-2-((1,3-dimethyl-1H-indazol-5-yl)amino)-5-fluoronicotinamide] yielded an IC50 of less than 10 nM. In the case of `CC[C@H](N)[C@H](Nc1nc(Nc2cccc3c2cnn3CC(F)F)c(C(N)=O)cc1F)C1CC1` [Example 2-547, 6-(((1R,2S)-2-amino-1-cyclopropylbutyl)amino)-2-((1-(2,2-difluoroethyl)-1H-indazol-4-yl)amino)-5-fluoronicotinamide], the IC50 is reported as less than 10 nM.
